These results are taken from PubChem BioAssay (NCI).

Some test systems named below: OVCAR-5 ovarian; NCI-H460 lung; 786-0 renal; MCF7 breast; HL-60(TB) leukemia; LOX IMVI melanoma; NCI-H522 lung; MDA-MB-231 breast; SK-MEL-2 melanoma; HCT-15 colon; UACC-62 melanoma; EKVX NSCLC; RPMI-8226 leukemia; SF-539 CNS; UACC-257 melanoma; HCC-2998 colon; CAKI-1 renal; DU-145 prostate.
Test in all cases: DTP human tumour cell line panel, 48 h

Each structure is given as a SMILES string.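 Each compound was tested at five concentrations against cells in 96-well plates for 48 hours. TGI marks complete inhibition of growth.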

On to `CCN(CC)CCOc1ccc(N2Cc3cc(OC)c(OC)cc3C2=O)cc1`, for which the TGI in the test on OVCAR-5 ovarian, with NCI-H460 lung, in the test with 786-0 renal, in the test on MCF7 breast, in the test with HL-60(TB) leukemia and with LOX IMVI melanoma was > 100 µM in each case. Besides, the TGI in the test with NCI-H522 lung, in the test on MDA-MB-231 breast, with SK-MEL-2 melanoma, in the test with HCT-15 colon, in the test on UACC-62 melanoma and in the test with EKVX NSCLC was > 100 µM in each case. Besides, the TGI in the test on RPMI-8226 leukemia, with SF-539 CNS, with UACC-257 melanoma, in the test with HCC-2998 colon, with CAKI-1 renal and in the test on DU-145 prostate was > 100 µM throughout.

Take `CCN(CC)CCC1CCCCN1CC(=O)N1c2ccccc2NC(=O)CC1C` (centres undefined): the TGI in the test with OVCAR-5 ovarian, in the test on NCI-H460 lung, in the test on 786-0 renal, in the test with MCF7 breast, in the test on HL-60(TB) leukemia and in the test with LOX IMVI melanoma was > 100 µM each time. The total growth inhibition concentration (TGI) with NCI-H522 lung, in the test with MDA-MB-231 breast, with SK-MEL-2 melanoma, in the test with HCT-15 colon, with UACC-62 melanoma and in the test with EKVX NSCLC was > 100 µM each time. Moreover, the TGI in the test on RPMI-8226 leukemia, in the test with SF-539 CNS, in the test with UACC-257 melanoma, in the test on HCC-2998 colon, in the test with CAKI-1 renal and in the test on DU-145 prostate was > 100 µM each time.

Turning to `COc1ccc(-c2nc(SCC(=O)N/N=C/c3ccc([N+](=O)[O-])cc3)[nH]c2-c2ccc(OC)cc2)cc1`, the TGI in the test on OVCAR-5 ovarian was 60.7 µM; in the test with NCI-H460 lung, 45.8 µM; with 786-0 renal, > 93.1 µM; in the test with MCF7 breast, 20.6 µM; in the test with HL-60(TB) leukemia it was 24.7 µM; in the test on LOX IMVI melanoma, 44.1 µM. For the same compound, the total growth inhibition concentration (TGI) in the test with NCI-H522 lung was 29.7 µM; in the test with MDA-MB-231 breast, > 100 µM; in the test with SK-MEL-2 melanoma, 20.5 µM; in the test on HCT-15 colon, > 85.1 µM; in the test on UACC-62 melanoma, 20.5 µM; in the test on EKVX NSCLC, 98.8 µM. Further, the TGI in the test on RPMI-8226 leukemia is 62 µM; in the test on SF-539 CNS, 30.8 µM; in the test on UACC-257 melanoma, 49.4 µM; with HCC-2998 colon, 31.5 µM; with CAKI-1 renal it was > 75.6 µM; in the test on DU-145 prostate, > 100 µM.

As to `Brc1ccc2[nH]cc([C@@H]3CN[C@@H](c4c[nH]c5ccc(Br)cc45)CN3)c2c1`, the TGI in the test on OVCAR-5 ovarian was 20.6 µM; with NCI-H460 lung, 24.4 µM; in the test with 786-0 renal, 14.3 µM; in the test on MCF7 breast, 11.6 µM; with HL-60(TB) leukemia it was 4.24 µM; with LOX IMVI melanoma it was 3.38 µM. For the same compound, the TGI turned out to be 4.39 µM with NCI-H522 lung; 14.2 µM in the test on MDA-MB-231 breast; 27.8 µM with SK-MEL-2 melanoma; 24.8 µM in the test with HCT-15 colon; 21.8 µM with UACC-62 melanoma; 20.3 µM in the test on EKVX NSCLC. The TGI amounted to 5.46 µM in the test with RPMI-8226 leukemia; 24.9 µM with SF-539 CNS; 23.7 µM in the test with UACC-257 melanoma; 11.6 µM with HCC-2998 colon; 21.9 µM in the test with CAKI-1 renal; 12.6 µM with DU-145 prostate.

For the compound `COc1ccc(NS(=O)(=O)c2ccc3ncn(NS(=O)(=O)c4ccc(I)cc4)c(=O)c3c2)cc1`, the TGI in the test on OVCAR-5 ovarian, with NCI-H460 lung, in the test with 786-0 renal, in the test with MCF7 breast, in the test on HL-60(TB) leukemia and with LOX IMVI melanoma was > 100 µM in each case. Moreover, the TGI in the test on NCI-H522 lung, in the test on MDA-MB-231 breast, in the test with SK-MEL-2 melanoma, in the test on HCT-15 colon, with UACC-62 melanoma and in the test on EKVX NSCLC was > 100 µM each time. Further, the TGI in the test on RPMI-8226 leukemia, in the test with SF-539 CNS, in the test with UACC-257 melanoma, with HCC-2998 colon, in the test with CAKI-1 renal and in the test with DU-145 prostate was > 100 µM each time.

As for `Cc1ccc([N+](=O)[O-])cc1S(=O)(=O)Nc1ccc(C(=O)/C=C/c2ccccc2)cc1`, the TGI in the test with OVCAR-5 ovarian came to 54.7 µM; in the test with NCI-H460 lung, 37.8 µM; with 786-0 renal, 33.1 µM; in the test with MCF7 breast it was 26.8 µM; with HL-60(TB) leukemia, 65.1 µM; in the test with LOX IMVI melanoma, 36.7 µM. In addition, the TGI is 53 µM in the test on NCI-H522 lung; 32.3 µM in the test with MDA-MB-231 breast; 38.2 µM with SK-MEL-2 melanoma; 48.7 µM with HCT-15 colon; 28.1 µM with UACC-62 melanoma; 33.5 µM in the test with EKVX NSCLC. Moreover, the TGI with RPMI-8226 leukemia is 37.1 µM; with SF-539 CNS, > 100 µM; in the test with UACC-257 melanoma it was 34.6 µM; with HCC-2998 colon it was 32.1 µM; in the test with CAKI-1 renal, 55.4 µM; in the test with DU-145 prostate, 29.5 µM.

Turning to `COc1ccc2cc(NC(=O)Nn3cnnc3)ccc2c1`, the TGI with OVCAR-5 ovarian, in the test on NCI-H460 lung, in the test with 786-0 renal, in the test on MCF7 breast, in the test on HL-60(TB) leukemia and with LOX IMVI melanoma was > 100 µM each time. In addition, the TGI in the test on NCI-H522 lung, in the test with MDA-MB-231 breast, in the test on SK-MEL-2 melanoma, with HCT-15 colon, in the test on UACC-62 melanoma and in the test on EKVX NSCLC was > 100 µM in each case. Besides, the concentration for total growth inhibition (TGI) in the test on RPMI-8226 leukemia, in the test with SF-539 CNS, in the test on UACC-257 melanoma, in the test on HCC-2998 colon, in the test on CAKI-1 renal and with DU-145 prostate was > 100 µM each time.

Take `N[C@@H]1c2c(Br)sc(Br)c2C(=O)[C@H]1Br`: the total growth inhibition concentration (TGI) with OVCAR-5 ovarian was > 100 µM; in the test with NCI-H460 lung, > 100 µM; in the test with 786-0 renal it was 63.5 µM; in the test with MCF7 breast it was > 100 µM; in the test on HL-60(TB) leukemia, > 24.8 µM; with LOX IMVI melanoma, 33.3 µM. Moreover, the TGI is 29 µM in the test with NCI-H522 lung; 48.5 µM in the test on MDA-MB-231 breast; > 100 µM in the test on SK-MEL-2 melanoma; 60.8 µM in the test on HCT-15 colon; 59.3 µM in the test with UACC-62 melanoma; > 88 µM with EKVX NSCLC. Besides, the concentration for total growth inhibition (TGI) in the test on RPMI-8226 leukemia is 39.5 µM; in the test on SF-539 CNS, > 100 µM; in the test with UACC-257 melanoma, > 75.3 µM; in the test with HCC-2998 colon, > 76.1 µM; in the test with CAKI-1 renal, 66.4 µM; with DU-145 prostate, > 100 µM.

Broadly, the TGI is the concentration giving total growth inhibition. The low end stands for greater sensitivity of the cells, the high end for lower sensitivity of the cells.
